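Five concentrations, 48 hours, 96-well plates. GI50 marks 50% less growth. At the TGI there is no net growth.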
How the values were obtained:
Assay in all cases: NCI-60 cell line screen, 48 h
SF-539 CNS = test system: SF-539 CNS
SNB-75 CNS = test system: SNB-75 CNS
NCI-H522 lung = test system: NCI-H522 lung
HL-60(TB) leukemia = test system: HL-60(TB) leukemia
BT-549 breast = test system: BT-549 breast
OVCAR-3 ovarian = test system: OVCAR-3 ovarian
RPMI-8226 leukemia = test system: RPMI-8226 leukemia
NCI-H460 lung = test system: NCI-H460 lung
MALME-3M melanoma = test system: MALME-3M melanoma
COLO 205 colon = test system: COLO 205 colon
PC-3 prostate = test system: PC-3 prostate
SK-MEL-28 melanoma = test system: SK-MEL-28 melanoma
HOP-62 NSCLC = test system: HOP-62 NSCLC
HCT-15 colon = test system: HCT-15 colon
A549 NSCLC = test system: A549 NSCLC
MDA-MB-231 breast = test system: MDA-MB-231 breast
IGROV1 ovarian = test system: IGROV1 ovarian
A498 renal = test system: A498 renal
MOLT-4 leukemia = test system: MOLT-4 leukemia
786-0 renal = test system: 786-0 renal
OVCAR-4 ovarian = test system: OVCAR-4 ovarian
HCT-116 colon = test system: HCT-116 colon
SK-OV-3 ovarian = test system: SK-OV-3 ovarian
SW-620 colon = test system: SW-620 colon
DU-145 prostate = test system: DU-145 prostate
U251 CNS = test system: U251 CNS
MDA-MB-435 = test system: MDA-MB-435
HCC-2998 colon = test system: HCC-2998 colon
ACHN renal = test system: ACHN renal
HT29 colon = test system: HT29 colon
UO-31 renal = test system: UO-31 renal
HOP-92 NSCLC = test system: HOP-92 NSCLC
NCI-H226 lung = test system: NCI-H226 lung
T-47D breast = test system: T-47D breast
NCI/ADR-RES ovarian = test system: NCI/ADR-RES ovarian
NCI-H23 lung = test system: NCI-H23 lung
MCF7 breast = test system: MCF7 breast
LOX IMVI melanoma = test system: LOX IMVI melanoma
RXF 393 renal = test system: RXF 393 renal
EKVX NSCLC = test system: EKVX NSCLC
CAKI-1 renal = test system: CAKI-1 renal
TK-10 renal = test system: TK-10 renal
HS 578T breast = test system: HS 578T breast
CCRF-CEM leukemia = test system: CCRF-CEM leukemia
SF-268 CNS = test system: SF-268 CNS
SK-MEL-5 melanoma = test system: SK-MEL-5 melanoma
SK-MEL-2 melanoma = test system: SK-MEL-2 melanoma
UACC-257 melanoma = test system: UACC-257 melanoma
SR leukemia = test system: SR leukemia
SNB-19 CNS = test system: SNB-19 CNS
SN12C renal = test system: SN12C renal
SF-295 CNS = test system: SF-295 CNS
OVCAR-8 ovarian = test system: OVCAR-8 ovarian
UACC-62 melanoma = test system: UACC-62 melanoma
OVCAR-5 ovarian = test system: OVCAR-5 ovarian
KM12 colon = test system: KM12 colon
K-562 leukemia = test system: K-562 leukemia

CCN(CC)CCOc1ccc(C(=C(C)Cc2ccc(OC)cc2)c2ccc(OCCN(CC)CC)cc2)cc1
GI50 (SF-539 CNS): 3.7 µM | TGI (SF-539 CNS): 7.37 µM | GI50 (SNB-75 CNS): 13.4 µM | TGI (SNB-75 CNS): 25 µM | GI50 (NCI-H522 lung): 4.56 µM | TGI (NCI-H522 lung): 9.86 µM | GI50 (HL-60(TB) leukemia): 3.46 µM | TGI (HL-60(TB) leukemia): 7.77 µM | GI50 (BT-549 breast): 3.84 µM | TGI (BT-549 breast): 7.48 µM | GI50 (OVCAR-3 ovarian): 3.2 µM | TGI (OVCAR-3 ovarian): 7.5 µM | GI50 (RPMI-8226 leukemia): 3.27 µM | TGI (RPMI-8226 leukemia): 8.39 µM | GI50 (NCI-H460 lung): 3.92 µM | TGI (NCI-H460 lung): 7.8 µM | GI50 (MALME-3M melanoma): 6.12 µM | TGI (MALME-3M melanoma): 10.5 µM | GI50 (COLO 205 colon): 4.45 µM | TGI (COLO 205 colon): 10.3 µM | GI50 (PC-3 prostate): 3.88 µM | TGI (PC-3 prostate): 8.15 µM | GI50 (SK-MEL-28 melanoma): 3.72 µM | TGI (SK-MEL-28 melanoma): 7.21 µM | GI50 (HOP-62 NSCLC): 4.7 µM | TGI (HOP-62 NSCLC): 11.2 µM | GI50 (HCT-15 colon): 2.65 µM | TGI (HCT-15 colon): 6.25 µM | GI50 (A549 NSCLC): 4.52 µM | TGI (A549 NSCLC): 10.6 µM | GI50 (MDA-MB-231 breast): 3.93 µM | TGI (MDA-MB-231 breast): 7.91 µM | GI50 (IGROV1 ovarian): 4.18 µM | TGI (IGROV1 ovarian): 8.31 µM | GI50 (A498 renal): 3.67 µM | TGI (A498 renal): 16 µM | GI50 (MOLT-4 leukemia): 3.13 µM | TGI (MOLT-4 leukemia): 7.55 µM | GI50 (786-0 renal): 3.42 µM | TGI (786-0 renal): 7.04 µM | GI50 (OVCAR-4 ovarian): 4.48 µM | TGI (OVCAR-4 ovarian): 10.7 µM | GI50 (HCT-116 colon): 2.95 µM | TGI (HCT-116 colon): 6.51 µM | GI50 (SK-OV-3 ovarian): 5.06 µM | TGI (SK-OV-3 ovarian): 10.5 µM | GI50 (SW-620 colon): 3.75 µM | TGI (SW-620 colon): 7.71 µM | GI50 (DU-145 prostate): 4.59 µM | TGI (DU-145 prostate): 10.6 µM | GI50 (U251 CNS): 3.99 µM | TGI (U251 CNS): 8.34 µM | GI50 (MDA-MB-435): 3.96 µM | TGI (MDA-MB-435): 7.48 µM | GI50 (HCC-2998 colon): 3.57 µM | TGI (HCC-2998 colon): 6.97 µM | GI50 (ACHN renal): 4.46 µM | TGI (ACHN renal): 8.67 µM | GI50 (HT29 colon): 2.83 µM | TGI (HT29 colon): 7.8 µM | GI50 (UO-31 renal): 3.42 µM | TGI (UO-31 renal): 6.82 µM | GI50 (HOP-92 NSCLC): 1.07 µM | TGI (HOP-92 NSCLC): 8.98 µM | GI50 (NCI-H226 lung): 4.37 µM | TGI (NCI-H226 lung): 11.3 µM | GI50 (T-47D breast): 4.06 µM | TGI (T-47D breast): 10.9 µM | GI50 (NCI/ADR-RES ovarian): 4.24 µM | TGI (NCI/ADR-RES ovarian): 8.74 µM | GI50 (NCI-H23 lung): 4.59 µM | TGI (NCI-H23 lung): 10.5 µM | GI50 (MCF7 breast): 2.86 µM | TGI (MCF7 breast): 6.51 µM | GI50 (LOX IMVI melanoma): 3.04 µM | TGI (LOX IMVI melanoma): 6.44 µM | GI50 (RXF 393 renal): 1.42 µM | TGI (RXF 393 renal): 5.11 µM | GI50 (EKVX NSCLC): 3.84 µM | TGI (EKVX NSCLC): 9.13 µM | GI50 (CAKI-1 renal): 3.63 µM | TGI (CAKI-1 renal): 7.38 µM | GI50 (TK-10 renal): 3.86 µM | TGI (TK-10 renal): 8.67 µM | GI50 (HS 578T breast): 4.34 µM | TGI (HS 578T breast): 11.5 µM | GI50 (CCRF-CEM leukemia): 2.65 µM | TGI (CCRF-CEM leukemia): 7.2 µM | GI50 (SF-268 CNS): 4.22 µM | TGI (SF-268 CNS): 9.16 µM | GI50 (SK-MEL-5 melanoma): 4 µM | TGI (SK-MEL-5 melanoma): 7.47 µM | GI50 (SK-MEL-2 melanoma): 4.8 µM | TGI (SK-MEL-2 melanoma): 9.83 µM | GI50 (UACC-257 melanoma): 4.62 µM | TGI (UACC-257 melanoma): 9.29 µM | GI50 (SR leukemia): 0.805 µM | TGI (SR leukemia): 3.1 µM | GI50 (SNB-19 CNS): 4.44 µM | TGI (SNB-19 CNS): 8.84 µM | GI50 (SN12C renal): 3.55 µM | TGI (SN12C renal): 7.19 µM | GI50 (SF-295 CNS): 4.36 µM | TGI (SF-295 CNS): 8.49 µM | GI50 (OVCAR-8 ovarian): 6.08 µM | TGI (OVCAR-8 ovarian): 15.2 µM | GI50 (UACC-62 melanoma): 4.59 µM | TGI (UACC-62 melanoma): 8.87 µM | GI50 (OVCAR-5 ovarian): 3.68 µM | TGI (OVCAR-5 ovarian): 7.32 µM | GI50 (KM12 colon): 3.66 µM | TGI (KM12 colon): 7.57 µM | GI50 (K-562 leukemia): 0.609 µM | TGI (K-562 leukemia): 2.08 µM
